Data as given in ChEMBL document CHEMBL1148457, “Comparative molecular active site analysis (CoMASA). 1. An approach to rapid evaluation of 3D QSAR” (J Med Chem, 2004).
pKi: −log10 of the molar value.

Target: T1, Corticosteroid-binding globulin (Homo sapiens, UniProt P08185)
T1 sequence (P08185 whole entry): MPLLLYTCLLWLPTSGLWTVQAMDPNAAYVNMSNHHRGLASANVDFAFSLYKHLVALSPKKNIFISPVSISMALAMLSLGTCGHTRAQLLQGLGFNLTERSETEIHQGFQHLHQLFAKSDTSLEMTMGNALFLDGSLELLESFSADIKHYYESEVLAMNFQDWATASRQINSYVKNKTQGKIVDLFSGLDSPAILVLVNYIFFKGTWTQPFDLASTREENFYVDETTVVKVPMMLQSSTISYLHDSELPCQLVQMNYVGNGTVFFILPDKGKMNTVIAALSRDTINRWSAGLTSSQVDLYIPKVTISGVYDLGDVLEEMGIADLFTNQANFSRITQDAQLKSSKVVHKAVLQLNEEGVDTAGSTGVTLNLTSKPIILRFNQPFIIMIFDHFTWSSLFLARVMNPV
Test: Binding affinity to human CBG receptor (corticosteroid-binding globulins)

CC(=O)[C@@]1(O)[C@H](O)C[C@H]2[C@@H]3CCC4=CC(=O)CC[C@]4(C)[C@H]3CC[C@@]21C
pKi: 6.25

CC(=O)[C@H]1CC[C@H]2[C@@H]3CCC4=CC(=O)CC[C@@H]4[C@H]3CC[C@]12C
pKi: 6.82

CC(=O)[C@H]1CC[C@H]2[C@@H]3CCC4=CC(=O)CC[C@]4(C)[C@H]3C(=O)C[C@]12C
pKi: 6.78

CC1C[C@@]2(C)C(=CC1=O)CC[C@@H]1[C@@H]2C(=O)C[C@@]2(C)[C@H]1CC[C@]2(O)C(=O)CO (stereo partly specified)
pKi: 7.69

CC(=O)C1CCC2C3C[C@H](C)C4=CC(=O)CCC4(C)C3CCC12C (stereo partly specified)
pKi: 7.12

C[C@@H]1C[C@@]2(C)C(=CC1=O)CC[C@H]1[C@@H]3CC[C@](O)(C(=O)CO)[C@@]3(C)C[C@H](O)[C@@]12F
pKi: 5.80

C[C@]12CCC(=O)C=C1CCC1[C@@H]2C(=O)C[C@@]2(C)[C@H]1CC[C@]2(O)C(=O)CO (single isomer, unassigned) [CORTISONE]
pKi: 6.89

C[C@]12C=CC(=O)C=C1CCC1[C@@H]2[C@@H](O)C[C@@]2(C)[C@H]1CC[C@]2(O)C(=O)CO (single isomer, unassigned) [PREDNISOLONE]
pKi: 7.51

C[C@]12C[C@H](O)[C@H]3[C@@H](CCC4=CC(=O)CC[C@@]43C)[C@@H]1CC[C@@H]2C(=O)CO (stereo in doubt; form 1) [CORTICOSTERONE]
pKi: 7.20

C[C@]12C[C@H](O)[C@H]3[C@@H](CCC4=CC(=O)CC[C@@]43C)[C@@H]1CC[C@@H]2C(=O)CO (stereo in doubt; form 2) [CORTICOSTERONE]
pKi: 7.88

C[C@]12CCC(=O)C=C1CC[C@@H]1[C@@H]2[C@@H](O)C[C@]2(C=O)[C@@H](C(=O)CO)CC[C@@H]12 [ALDOSTERONE]
pKi: 6.28

C[C@]12CC[C@H](O)C[C@@H]1CC[C@@H]1[C@@H]2CC[C@]2(C)[C@@H](O)CC[C@@H]12 [ANDROSTANEDIOL]
pKi: 5.00

C[C@]12CCC(=O)C=C1CC[C@@H]1[C@@H]2CC[C@]2(C)C(=O)CC[C@@H]12 [ANDROSTENEDIONE]
pKi: 5.76

C[C@]12CCC(=O)C=C1CC[C@@H]1[C@@H]2CC[C@@]2(C)[C@H]1CC[C@]2(O)C(=O)CO [CORTODOXONE]
pKi: 7.88

C[C@]12CC[C@H]3[C@@H](CCC4=CC(=O)CC[C@@]43C)[C@@H]1CC[C@@H]2C(=O)CO [DESOXYCORTICOSTERONE]
pKi: 7.65

C[C@]12CC[C@@H]3c4ccc(O)cc4CC[C@H]3[C@@H]1CC[C@@H]2O [ESTRADIOL]
pKi: 5.00

C[C@]12CC[C@@H]3c4ccc(O)cc4CC[C@H]3[C@@H]1C[C@@H](O)[C@@H]2O [ESTRIOL]
pKi: 5.00

C[C@]12CC[C@@H]3c4ccc(O)cc4CC[C@H]3[C@@H]1CCC2=O [ESTRONE]
pKi: 5.00

CC(=O)OCC(=O)[C@@]1(O)CC[C@H]2[C@@H]3CCC4=CC(=O)CC[C@]4(C)[C@H]3[C@@H](O)C[C@@]21C [HYDROCORTISONE ACETATE]
pKi: 7.55

CC(=O)[C@@]1(O)CC[C@H]2[C@@H]3CC[C@@H]4C[C@H](O)CC[C@]4(C)[C@H]3CC[C@@]21C [HYDROXYPREGNENOLONE]
pKi: 5.00

CC(=O)[C@@]1(O)CC[C@H]2[C@@H]3CCC4=CC(=O)CC[C@]4(C)[C@H]3CC[C@@]21C [HYDROXYPROGESTERONE]
pKi: 7.74

C[C@]12CC[C@H]3[C@@H](CCC4=CC(=O)CC[C@@H]43)[C@@H]1CC[C@@H]2O [NANDROLONE]
pKi: 6.14

C[C@]12CC[C@H](O)CC1=CC[C@@H]1[C@@H]2CC[C@]2(C)C(=O)CC[C@@H]12 [PRASTERONE]
pKi: 5.00

CC(=O)[C@H]1CC[C@H]2[C@@H]3CC=C4C[C@@H](O)CC[C@]4(C)[C@H]3CC[C@]12C [PREGNENOLONE]
pKi: 5.23

CC(=O)[C@H]1CC[C@H]2[C@@H]3CCC4=CC(=O)CC[C@]4(C)[C@H]3CC[C@]12C [PROGESTERONE]
pKi: 7.38

C[C@]12CC[C@H]3[C@@H](CCC4=CC(=O)CC[C@@]43C)[C@@H]1CC[C@@H]2O [TESTOSTERONE]
pKi: 6.72
